# Test results published in patent US6620828B2, “Thiazole compounds and pharmaceutical compositions for inhibiting protein kinases and methods for their use” (Agouron Pharmaceuticals, Inc., priority 1999, dated 2003).
# Tested on: human umbilical vein endothelial cells (HUVEC)
# Assay: HUVEC proliferation assay
# Type: cell-based
# Conditions: Homo sapiens, HUVEC, 10 nM; crude combinatorial urea library; read-out: Inhibition of HUVEC Proliferation % inhibition @ 10 nM
# Procedure, shortened: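 Readout was MTT dye reduction (A595) after 72 h of stimulation with VEGF at 6 ng/ml final. Compound, in 0.1% DMSO final, was added 1 h before VEGF to HUVEC starved 24 h in 1% FBS. % inhibition was scaled between VEGF-alone and unstimulated wells; IC50 was fitted from triplicate dose curves.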
row,SMILES,inhibition at 0.01 µM [%]
1,COc1cccc(C(=O)Nc2cccc(-c3csc(-c4sc(NC(=O)NCCCN(C)C)nc4N)n3)c2)c1,-8
2,COc1cccc(C(=O)Nc2cccc(-c3csc(-c4sc(NC(=O)NCCc5ccccn5)nc4N)n3)c2)c1,-2
3,COCCNC(=O)Nc1nc(N)c(-c2nc(-c3cccc(NC(=O)c4cccc(OC)c4)c3)cs2)s1,35
4,COc1cccc(C(=O)Nc2cccc(-c3csc(-c4sc(NC(=O)NCCCN5CCCCC5C)nc4N)n3)c2)c1 (centres unmarked),-18
5,COc1cccc(C(=O)Nc2cccc(-c3csc(-c4sc(NC(=O)N[C@@H](CC(N)=O)C(N)=O)nc4N)n3)c2)c1,19
6,COc1cccc(C(=O)Nc2cccc(-c3csc(-c4sc(NC(=O)NCc5ccc(N)cc5)nc4N)n3)c2)c1,4

# Same assay, conditions: Homo sapiens, HUVEC, 50 nM; crude combinatorial urea library; read-out: Inhibition of HUVEC Proliferation % inhibition @ 50 nM
row,SMILES,inhibition at 0.05 µM [%]
1,COc1cccc(C(=O)Nc2cccc(-c3csc(-c4sc(NC(=O)NCCCN(C)C)nc4N)n3)c2)c1,15
2,COc1cccc(C(=O)Nc2cccc(-c3csc(-c4sc(NC(=O)NCCc5ccccn5)nc4N)n3)c2)c1,128
3,COCCNC(=O)Nc1nc(N)c(-c2nc(-c3cccc(NC(=O)c4cccc(OC)c4)c3)cs2)s1,32
4,COc1cccc(C(=O)Nc2cccc(-c3csc(-c4sc(NC(=O)NCCCN5CCCCC5C)nc4N)n3)c2)c1 (centres unmarked),55
5,COc1cccc(C(=O)Nc2cccc(-c3csc(-c4sc(NC(=O)N[C@@H](CC(N)=O)C(N)=O)nc4N)n3)c2)c1,23
6,COc1cccc(C(=O)Nc2cccc(-c3csc(-c4sc(NC(=O)NCc5ccc(N)cc5)nc4N)n3)c2)c1,35

# Same assay, conditions: Homo sapiens, HUVEC, Inhibition of HUVEC Proliferation; 50 nM; crude combinatorial urea library; read-out: % inhibition @ 50 nM
row,SMILES,inhibition at 0.05 µM [%]
1,CCCCN(CC)CCNC(=O)Nc1nc(N)c(-c2nc(-c3cc(NC(=O)c4cccc(OC)c4)c(F)cc3F)cs2)s1,24
2,COc1cccc(C(=O)Nc2cc(-c3csc(-c4sc(NC(=O)NCc5ccc(S(N)(=O)=O)cc5)nc4N)n3)c(F)cc2F)c1,77
3,COc1cccc(C(=O)Nc2cc(-c3csc(-c4sc(NC(=O)NCS(=O)(=O)O)nc4N)n3)c(F)cc2F)c1,0
4,COc1cccc(C(=O)Nc2cc(-c3csc(-c4sc(NC(=O)NCCc5ccc(N)cc5)nc4N)n3)c(F)cc2F)c1,65
5,COc1cccc(C(=O)Nc2cc(-c3csc(-c4sc(NC(=O)N[C@H](CO)Cc5c[nH]cn5)nc4N)n3)c(F)cc2F)c1,47
6,COc1cccc(C(=O)Nc2cc(-c3csc(-c4sc(NC(=O)NCC(O)CO)nc4N)n3)c(F)cc2F)c1 (centres unmarked),74
7,COc1cccc(C(=O)Nc2cc(-c3csc(-c4sc(NC(=O)NCCCCCCN(C)C)nc4N)n3)c(F)cc2F)c1,83
8,COc1cccc(C(=O)Nc2cc(-c3csc(-c4sc(NC(=O)NCCC(C)C)nc4N)n3)c(F)cc2F)c1,55
9,COc1cccc(C(=O)Nc2cc(-c3csc(-c4sc(NC(=O)NCC5(O)CCCCC5)nc4N)n3)c(F)cc2F)c1,72

# Same assay, conditions: Homo sapiens, HUVEC, Inhibition of HUVEC Proliferation; 50 nM; crude combinatorial urea library; read-out: Inhibition @ 50 nM
row,SMILES,inhibition at 0.05 µM [%]
1,CCN(CC)CCCNC(=O)Nc1nc(N)c(-c2nc(-c3cc(NC(=O)c4cccc(OC)c4)c(F)cc3F)no2)s1,85
2,COc1cccc(C(=O)Nc2cc(-c3noc(-c4sc(NC(=O)NCC(N)=O)nc4N)n3)c(F)cc2F)c1 [drawing 803],30
3,COc1cccc(C(=O)Nc2cc(-c3noc(-c4sc(NC(=O)NCC5CCCO5)nc4N)n3)c(F)cc2F)c1 (centres unmarked) [drawing 762],107
4,COc1cccc(C(=O)Nc2cc(-c3noc(-c4sc(NC(=O)NCCc5c[nH]cn5)nc4N)n3)c(F)cc2F)c1,72
5,COc1cccc(C(=O)Nc2cc(-c3noc(-c4sc(NC(=O)NCCc5cncn5C)nc4N)n3)c(F)cc2F)c1,10
6,COc1cccc(C(=O)Nc2cc(-c3noc(-c4sc(NC(=O)NCCCN(C)c5ccccc5)nc4N)n3)c(F)cc2F)c1,84
7,COc1cccc(C(=O)Nc2cc(-c3noc(-c4sc(NC(=O)NCCN(C)C)nc4N)n3)c(F)cc2F)c1,69
8,COc1cccc(C(=O)Nc2cc(-c3noc(-c4sc(NC(=O)NCC(C)(O)CO)nc4N)n3)c(F)cc2F)c1 (centres unmarked),45
9,COc1cccc(C(=O)Nc2cc(-c3noc(-c4sc(NC(=O)NCCCC(=O)O)nc4N)n3)c(F)cc2F)c1,96
10,COc1cccc(C(=O)Nc2cc(-c3noc(-c4sc(NC(=O)NC5CC(C)(C)NC(C)(C)C5)nc4N)n3)c(F)cc2F)c1,99

# Same assay, conditions: Homo sapiens, HUVEC, Table I screening results; 150 nM; crude combinatorial amide library
row,SMILES,inhibition at 0.15 µM [%]
1,COc1cc(Nc2nc(N)c(-c3nc(-c4cccc(NC(=O)c5cc6cc(Cl)ccc6[nH]5)c4)cs3)s2)cc(OC)c1OC,0
2,COc1cc(Nc2nc(N)c(-c3nc(-c4cccc(NC(=O)c5ccc6c(c5)OC(F)(F)O6)c4)cs3)s2)cc(OC)c1OC,72
3,CCC(C(=O)Nc1cccc(-c2csc(-c3sc(Nc4cc(OC)c(OC)c(OC)c4)nc3N)n2)c1)c1ccccc1 (centres unmarked),6
4,COc1cc(Nc2nc(N)c(-c3nc(-c4cccc(NC(=O)c5ccc6cc[nH]c6c5)c4)cs3)s2)cc(OC)c1OC,25
5,COc1cc(Nc2nc(N)c(-c3nc(-c4cccc(NC(=O)C5CCc6ccccc6C5)c4)cs3)s2)cc(OC)c1OC (centres unmarked),11
6,COc1cc(Nc2nc(N)c(-c3nc(-c4cccc(NC(=O)/C=C/c5ccccn5)c4)cs3)s2)cc(OC)c1OC,-7
7,COc1cc(Nc2nc(N)c(-c3nc(-c4cccc(NC(=O)c5ccccc5)c4)cs3)s2)cc(OC)c1OC [drawing 845],33

# Same assay, conditions: Homo sapiens, HUVEC, Table II screening results; 1 nM; crude combinatorial amide library
row,SMILES,inhibition at 0.001 µM [%]
1,CNC(=O)Nc1nc(N)c(-c2nc(-c3cccc(NC(=O)c4cc(=O)[nH]c(=O)[nH]4)c3)cs2)s1,-5
2,CNC(=O)Nc1nc(N)c(-c2nc(-c3cccc(NC(=O)c4cccc(OC)c4)c3)cs2)s1 [drawing 1034],2
3,CNC(=O)Nc1nc(N)c(-c2nc(-c3cccc(NC(=O)c4ccccc4C(C)C)c3)cs2)s1,-9
4,CCc1ccccc1C(=O)Nc1cccc(-c2csc(-c3sc(NC(=O)NC)nc3N)n2)c1,0
5,CNC(=O)Nc1nc(N)c(-c2nc(-c3cccc(NC(=O)C4C[C@@H]5C[C@H]4CCC5O)c3)cs2)s1 (some centres unmarked),14
6,CC/C=C(\C)C(=O)Nc1cccc(-c2csc(-c3sc(NC(=O)NC)nc3N)n2)c1,-12

# Same assay, conditions: Homo sapiens, HUVEC, Table II screening results; 10 nM; crude combinatorial amide library; read-out: % inhibition @ 10 nM
row,SMILES,inhibition at 0.01 µM [%]
1,CNC(=O)Nc1nc(N)c(-c2nc(-c3cccc(NC(=O)c4cc(=O)[nH]c(=O)[nH]4)c3)cs2)s1,-14
2,CNC(=O)Nc1nc(N)c(-c2nc(-c3cccc(NC(=O)c4cccc(OC)c4)c3)cs2)s1 [drawing 1034],91
3,CNC(=O)Nc1nc(N)c(-c2nc(-c3cccc(NC(=O)c4ccccc4C(C)C)c3)cs2)s1,26
4,CCc1ccccc1C(=O)Nc1cccc(-c2csc(-c3sc(NC(=O)NC)nc3N)n2)c1,106
5,CNC(=O)Nc1nc(N)c(-c2nc(-c3cccc(NC(=O)C4C[C@@H]5C[C@H]4CCC5O)c3)cs2)s1 (some centres unmarked),21
6,CC/C=C(\C)C(=O)Nc1cccc(-c2csc(-c3sc(NC(=O)NC)nc3N)n2)c1,67

# Same assay, conditions: Homo sapiens, HUVEC, table following Table II (untitled); 1 nM; crude combinatorial library
row,SMILES,inhibition at 0.001 µM [%]
1,COc1cc(Nc2nc(N)c(-c3nc(-c4cc(NC(=O)/C=C/C(=O)NCC5CC5)ccc4C)no3)s2)cc(OC)c1OC,39
2,COc1cc(Nc2nc(N)c(-c3nc(-c4cc(NC(=O)c5ccc(C(C)(C)C)o5)ccc4C)no3)s2)cc(OC)c1OC,-9
3,COc1cc(Nc2nc(N)c(-c3nc(-c4cc(NC(=O)C[C@@H]5OC(C)(C)OC5=O)ccc4C)no3)s2)cc(OC)c1OC,-2
4,COc1cc(Nc2nc(N)c(-c3nc(-c4cc(NC(=O)c5ccc(C(C)=O)s5)ccc4C)no3)s2)cc(OC)c1OC,35
5,COc1cccc(/C=C/C(=O)Nc2ccc(C)c(-c3noc(-c4sc(Nc5cc(OC)c(OC)c(OC)c5)nc4N)n3)c2)c1,-5
6,COc1cc(Nc2nc(N)c(-c3nc(-c4cc(NC(=O)[C@@H](OC)c5ccccc5)ccc4C)no3)s2)cc(OC)c1OC,-11
7,COc1cc(Nc2nc(N)c(-c3nc(-c4cc(NC(=O)C5CC(=O)N(C)C5)ccc4C)no3)s2)cc(OC)c1OC (centres unmarked),16
8,COc1cc(Nc2nc(N)c(-c3nc(-c4cc(NC(=O)C5CCCC(OC)C5)ccc4C)no3)s2)cc(OC)c1OC (centres unmarked),-4

# Same assay, conditions: Homo sapiens, HUVEC, table following Table II (untitled); 10 nM; crude combinatorial library; read-out: % inhibition @ 10 nM
row,SMILES,inhibition at 0.01 µM [%]
1,COc1cc(Nc2nc(N)c(-c3nc(-c4cc(NC(=O)/C=C/C(=O)NCC5CC5)ccc4C)no3)s2)cc(OC)c1OC,5
2,COc1cc(Nc2nc(N)c(-c3nc(-c4cc(NC(=O)c5ccc(C(C)(C)C)o5)ccc4C)no3)s2)cc(OC)c1OC,48
3,COc1cc(Nc2nc(N)c(-c3nc(-c4cc(NC(=O)C[C@@H]5OC(C)(C)OC5=O)ccc4C)no3)s2)cc(OC)c1OC,3
4,COc1cc(Nc2nc(N)c(-c3nc(-c4cc(NC(=O)c5ccc(C(C)=O)s5)ccc4C)no3)s2)cc(OC)c1OC,93
5,COc1cccc(/C=C/C(=O)Nc2ccc(C)c(-c3noc(-c4sc(Nc5cc(OC)c(OC)c(OC)c5)nc4N)n3)c2)c1,40
6,COc1cc(Nc2nc(N)c(-c3nc(-c4cc(NC(=O)[C@@H](OC)c5ccccc5)ccc4C)no3)s2)cc(OC)c1OC,63
7,COc1cc(Nc2nc(N)c(-c3nc(-c4cc(NC(=O)C5CC(=O)N(C)C5)ccc4C)no3)s2)cc(OC)c1OC (centres unmarked),-18
8,COc1cc(Nc2nc(N)c(-c3nc(-c4cc(NC(=O)C5CCCC(OC)C5)ccc4C)no3)s2)cc(OC)c1OC (centres unmarked),19

# Same assay, conditions: Table I screening results; 150 nM; crude combinatorial amide library
row,SMILES,% inhibition @ 150 nM [%]
1,COc1cc(Nc2nc(N)c(-c3nc(-c4cccc(NC(=O)/C=C/c5ccccc5F)c4)cs3)s2)cc(OC)c1OC,0
2,COc1cc(Nc2nc(N)c(-c3nc(-c4cccc(NC(=O)/C=C/c5ccco5)c4)cs3)s2)cc(OC)c1OC,0
